{
  "source": "paper PMC4694998",
  "about": "“Suppression of β-catenin/TCF transcriptional activity and colon tumor cell growth by dual inhibition of PDE5 and 10” (Oncotarget, 2015)",
  "key": {"[1]": {"biological_target": "T1, PDE5 (Homo sapiens, UniProt O76074)", "T1 construct": "purchased BPS Biosciences", "assay": "IMAP fluorescence polarization PDE assay, recombinant PDE5", "type": "biochemical", "conditions": "recombinant enzyme", "description": "Recombinant PDE isozymes were purchased from BPS Biosciences. The PDE10 antibody was purchased from GeneTex, while the PDE5 antibody was purchased from Cell Signaling Technologies. Non-targeting control siRNA and PDE10 specific siRNAs were purchased from Qiagen. RNAiMAX transfection reagent was purchased from Invitrogen. DMSO was used as vehicle for all compounds unless otherwise noted. All other reagents were purchased from Sigma.\nPDE activity was measured using the IMAP fluorescence polarization (FP) PDE assay (Molecular Devices) in which binding of hydrolyzed fluorescent cyclic nucleotide substrate to the IMAP reagent increases FP as described previously.\n(§1) The IC50 values were determined as described previously. All experiments were repeated a minimum of three times to determine the reproducibility of the results. All error bars represent standard error of the mean (SEM). Statistical analysis of differences between samples was performed using the Student’s t-test. A P value of < 0.05 was considered statistically significant."}, "[2]": {"system": "HCT116 colon tumor cells", "assay": "Growth assay (Cell Titer Glo), HCT116", "type": "cell-based, human", "conditions": "Homo sapiens, HCT-116; 72 hours of treatment; read-out: HCT116 growth IC50", "description": "All cell lines were expanded upon delivery, and numerous aliquots of low passage cells were preserved in liquid N2. Cells were passaged no longer than 2 months. Tumor cell lines obtained from ATCC were characterized by STR profiling as performed by ATCC. The NCM460 line was characterized by INCELL as described previously (e.g. tumorigenicity testing). No additional re-authentication of the cell lines was performed except for experimental reasons (e.g. confirmation of cell doubling time, morphology, sensitivity to SS, PDE5/10 expression levels, etc). Cells were plated in 96-well microtiter plates at a density of 5,000 cells per well. For drug treatment, cells were treated with compound or vehicle, and incubated at 37°C for 72 hours. […] For siRNA assays, cells were transfected with siRNA under the same condition described above. The effect of treatment on cell growth was measured using the Cell Titer Glo Assay as specified by the manufacturer (Promega). The IC50 values were determined as described previously. All experiments were repeated a minimum of three times to determine the reproducibility of the results. All error bars represent standard error of the mean (SEM). Statistical analysis of differences between samples was performed using the Student’s t-test."}, "[3]": {"system": "NCM460 normal colonocytes", "assay": "Growth assay (Cell Titer Glo), NCM460 normal colonocytes", "type": "cell-based, human", "description": "Human colon tumor cell lines, HCT116, HT29, SW480 and Caco-2 were obtained from the American Type Culture Collection (ATCC) and grown under standard cell culture conditions in RPMI 1640 medium containing 5% serum at 37°C in a humidified atmosphere with 5% CO2. The human colonocyte line, NCM460, that is derived from normal human colon mucosa was obtained from INCELL and grown in INCELL’s enriched M3:10 medium with 10% serum as recommended by supplier. All cell lines were expanded upon delivery, and numerous aliquots of low passage cells were preserved in liquid N2. Cells were passaged no longer than 2 months. Tumor cell lines obtained from ATCC were characterized by STR profiling as performed by ATCC. The NCM460 line was characterized by INCELL as described previously (e.g. tumorigenicity testing). No additional re-authentication of the cell lines was performed except for experimental reasons (e.g. confirmation of cell doubling time, morphology, sensitivity to SS, PDE5/10 expression levels, etc).\nCells were plated in 96-well microtiter plates at a density of 5,000 cells per well. For drug treatment, cells were treated with compound or vehicle, and incubated at 37°C for 72 hours. All growth assays were performed in 5% serum unless otherwise noted. Deionized water was used as vehicle control for papaverine. For siRNA assays, cells were transfected with siRNA under the same condition described above. The effect of treatment on cell growth was measured using the Cell Titer Glo Assay as specified by the manufacturer (Promega).\nas §1"}, "[4]": {"system": "intracellular cGMP in HCT116 colon tumor cells", "assay": "cGMP assay (EIA), HCT116", "type": "cell-based, human", "conditions": "45 min of treatment", "description": "Cells were plated at a density of 1 × 10^6 cells per 10 cm tissue culture dish, incubated for 48 hours, and treated with ADT-094 or vehicle control. After 45 min of treatment, cells were lysed and assayed for cGMP content using the cGMP Direct Biotrak EIA kit (GE Healthcare Life Sciences). The assay was done according to the manufacturer’s specifications."}, "[5]": {"system": "PKG/PKA activity (VASP Ser239/Ser157) in Caco-2 colon tumor cells", "assay": "Western blotting of VASP phosphorylation, Caco-2", "type": "cell-based, human", "description": "(§2) Western blotting was performed as described previously. Cells were treated with ADT-094 or vehicle for 8 hours before cell lysates were collected."}, "[6]": {"system": "β-catenin signaling in HCT116 colon tumor cells", "assay": "Western blotting of β-catenin, cyclin D1, survivin, HCT116", "type": "cell-based, human", "description": "as §2"}, "[7]": {"system": "β-catenin/TCF transcriptional activity in SW480 cells", "assay": "TOP-FLASH luciferase reporter assay, SW480", "type": "cell-based, human", "conditions": "SW480, 24 hours of treatment", "description": "Cells were seeded at a density of 5 × 10^4 cells per well in 24-well tissue culture plates and incubated overnight at 37°C. Cells were transiently transfected with 0.1 μg TOP-FLASH constructs (Millipore) and 0.1 μg β-galactosidase-expressing vector (Promega). After 24 hours of transfection, cells were treated with ADT-094 or vehicle for 24 hours. At the end of treatment, cells were lysed and both luciferase and β-galactosidase activities were measured using kits from Promega. All luciferase activity was normalized to β-galactosidase activity."}},
  "data": [
    {"smiles": "COc1ccc2c(c1)C(CC(=O)NCc1ccco1)=C(C)/C2=C/c1cc(OC)c(OC)c(OC)c1", "note": "[ADT-094, (Z)-N-(furan-2-ylmethyl)-2-(5-methoxy-2-methyl-1-(3,4,5-trimethoxybenzylidene)-1H-inden-3-yl) acetamide]", "values": [
      {"measurement": "IC50", "setting": "[1]", "result": 2.4, "unit": "µM"},
      {"measurement": "IC50", "setting": "[2]", "result": 0.1, "unit": "µM"},
      {"measurement": "IC50", "setting": "[3]; Homo sapiens, NCM460, Figure 3C, luciferase-based ATP assay, 72 hours, read-out: NCM460 growth IC50", "result": "> 10", "unit": "µM"},
      {"measurement": "growth of normal colonocytes (tumor cell selectivity)", "setting": "[3]; in words", "result": "essentially refractory to treatment"},
      {"measurement": "intracellular cGMP levels", "setting": "[4]", "result": "significantly increased"},
      {"measurement": "VASP phosphorylation at Ser239", "setting": "[5]; Caco-2", "result": "Dose-dependent increases"},
      {"measurement": "PKA activity (VASP phosphorylation at Ser157)", "setting": "[5]; Caco-2, at concentrations that cause PKG activation", "result": "did not affect PKA activity"},
      {"measurement": "levels of cyclin D1 and survivin", "setting": "[6]", "result": "also decreased"},
      {"measurement": "β-catenin levels", "setting": "[6]", "result": "dose-dependent decrease"},
      {"measurement": "β-catenin/TCF transcriptional activity", "setting": "[7]", "result": "significantly inhibited"}
    ]}
  ]
}
